Literature values, collected in patent US20040147564A1, “Combinations of glimepiride and the thiazolidinedione for treatment of diabetes” (priority 2003, published 2004).

Assays:
[1] = not given; remark: listed apart in the source
[2] = not given; remark: listed apart in the source

SMILES	Solubility in buffered aqueous solution (pH of 2.3)	Solubility in water (at 25° C.)	Elimination half-life ([1]; at steady state after oral administration)	Terminal half-life ([1]; in vivo)	Reduction of absolute HbA1c levels ([2]; human, in vivo)	Increase of plasma insulin levels ([2]; patients with type 2 diabetes)
CN(CCOc1ccc(CC2SC(=O)NC2=O)cc1)c1ccccn1 (stereo not drawn) [Rosiglitazone, rosiglitazone]	readily soluble					
CCC1=C(C)CN(C(=O)NCCc2ccc(S(=O)(=O)NC(=O)N[C@H]3CC[C@H](C)CC3)cc2)C1=O [glimepiride, 1-[[p-[2-(3-ethyl-4-methyl-2-oxo-3-pyrroline-1-carboxamido)ethyl]phenyl]sulfonyl]-3-(trans-4-methylcyclohexyl)urea]		≤ 100 µg/mL	5 to 8 h	more than 5 hours	1-2%	≤ 50%
